Test results as given in patent US20220029188A1, “REDOX FLOW BATTERY” (IP2IPO Innovations Limited, priority 2018, published 2022).
Values after ≈ are worked out from the molar mass of the structure shown. Where two headings read alike, the source gives them in different places.

Experiments:
[1] = Standard electrochemical potential from CV experiments; format: physicochemical
Method: (§1) Rotating Disk Electrode (RDE) techniques were performed using a mirror polished glassy 5 mm diameter carbon disk electrode (Pine Instruments, AFE6R1 AU) equipped within a rotator (AFMSRCE). Electrochemical tests were performed using a potentiostat (Autolab, model PGSTAT20) and a three-compartment electrochemical glass cell which employed a Pt wire counter electrode. A saturated calomel reference electrode (SCE, E°=0.244 V vs. SHE at 25° C.) was used as the reference electrode, which was ionically connected to the main compartment of the electrochemical glass cell via a Luggin capillary.
(§2) The rotation rates were from 500 rpm to 3000 rpm. CV scan rates were from 10 mV s^−1 to 200 mV s^−1. LSV scan rate was 5 mV s^−1.

[2] = Rotating disk electrode LSV, Levich, Koutecký-Levich and Tafel analysis, 1 mM BQDS in 1 M H2SO4; format: physicochemical
Method: as §1, §2

[3] = Cyclic voltammogram of 1 mM BQ in 1 M H2SO4; format: physicochemical; settings: 1 mM in 1 M sulphuric acid, scan rate 50 mV s^−1, glassy carbon electrode
Source text: The working electrode was a glassy carbon electrode and the counter electrode was a platinum wire.

[4] = Rotating disk electrode measurements (Levich equation), Example 6; format: physicochemical; settings: 1 mM, kinematic viscosity 0.01 cm^2 s^−1
Method: The hydroquinone concentration was 1 mM and the kinematic viscosity of the solution was 0.01 cm^2 s^−1. Using the Levich equation, the diffusion coefficient of benzoquinone was calculated to be 1.5707×10^−7 cm^2 s^−1.

[5] = comparison systems; cited from earlier work
[6] = comparison systems; cited from earlier work; remark: listed apart in the source
[7] = comparison species; cited from earlier work

Row | Structure (SMILES) | electrochemical potential [5] | solubility [6] [mM] | diffusion coefficient [7] | charge transfer coefficient [7] | other results
1 | O=S(=O)([O-])c1cc(O)c(O)c(S(=O)(=O)[O-])c1.[Na+].[Na+] [BQDS, 4,5-Dihydroxy-1,3-benzenedisulfonic acid disodium salt monohydrate] |  |  |  |  | standard electrochemical potential [1]: 0.86 V vs SHE; diffusion coefficient ([2]; determined from LSV, 1 mM in 1 M H2SO4): 5.15×10^−6 cm^2 s^−1; charge transfer coefficient ([2]; from Koutecký-Levich plots and Tafel plot): 0.34
2 | O=C1C=C(S(=O)(=O)O)C=C(S(=O)(=O)O)C1=O [BQ] |  |  |  |  | oxidation peak [3]: 1 V vs MSE; reduction peak [3]: 0.7 V vs MSE; diffusion coefficient [4]: 1.5707×10^−7 cm^2 s^−1
3 | C[N+](C)(C)C[c-]1cccc1.[Cl-].[Fe+2].c1cc[cH-]c1 [Fe-NCL, (ferrocenylmethyl)trimethylammonium chloride] | 0.67 V vs SHE | 4000 | 3.74×10^−6 cm^2 s^−1 |  | 
4 | CC1(C)CCCC(C)(C)N1[O] [TEMPO] | 0.90 V vs SHE |  | 7.00×10^−8 cm^2 s^−1 | 0.68 | 
5 | Oc1ccc(O)cc1 [hydroquinone] | identical potential as Fe-NCL | 500 (≈ 55.1 mg/mL) | 5.03×10^−6 cm^2 s^−1 | 0.51 | 
